pEC50: −log10 of the molar value. Entries after “also recorded” stand apart in the source; their conditions may differ. Read-outs that look alike come from different tables or passages of the source. Marks after values point to notes of the source that are not given here.
Key:
[1] = target: T1, OR10J5 (Homo sapiens, UniProt Q8NHC4); assay: OR10J5 (SEQ ID NO: 86) dose-response of isomers, EC20% relative to positive control; assay type: cell-based; details: 20 % of positive control (100µM Mahonial); OR10J5 with SEQ ID NO: 86
T1 construct: expressed in transfected cells; host or cells: HEK293T cells stably expressing human RTP1S (V227I) and RTP2 (L220R)
T1 sequence (Q8NHC4 with tags, fused parts or gaps): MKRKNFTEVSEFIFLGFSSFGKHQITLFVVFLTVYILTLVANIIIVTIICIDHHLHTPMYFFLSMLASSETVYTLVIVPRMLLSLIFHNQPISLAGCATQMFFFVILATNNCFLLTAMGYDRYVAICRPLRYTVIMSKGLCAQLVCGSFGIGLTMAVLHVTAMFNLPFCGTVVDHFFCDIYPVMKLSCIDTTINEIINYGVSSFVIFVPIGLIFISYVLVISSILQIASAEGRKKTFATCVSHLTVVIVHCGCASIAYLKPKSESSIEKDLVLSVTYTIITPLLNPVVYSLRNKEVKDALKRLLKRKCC
Excerpt: Once a strong ligand is known for a given OR and the concentration of that ligand for maximal OR activation, this ligand (tested at its maximal inducing concentration) can be introduced as a positive control into the experiment, and fold-luciferase can be reported as % activation of the positive control according to the following formula: % activation = (Fold luciferase activation test compound−1)/(Fold luciferase activation positive control−1) × 100 [formula]
Activation of OR10J5 with the C-terminal domain of SEQ ID NO: 86 by (S,E)-10-hydroxy-4,8-dimethyldec-4-enal or (R,E)-10-hydroxy-4,8-dimethyldec-4-enal was measured in a dose-response analysis.
Potency of the two tested OR10J5 ligands is expressed as the EC20% value, which is the concentration that leads to a 20 % increase of the luciferase activity relative to the positive control (100µM, Mahonial; (4E)-9-hydroxy-5,9-dimethyl-4-Decenal). […] Because of the difference in EC20%, a much lower concentration of the (S,E)-isomer is needed to activate the receptor compared to the concentration needed of the (R,E)-isomer. […] This example further illustrates the usefulness of the improved assay to determine the most odor-active isomers.

[2] = test system: OR10H5; assay: Luciferase dose-response, wild-type vs changed C-terminus (SEQ ID NO: 86); assay type: cell-based, human
Excerpt: (§1) To create an expression plasmid, an OR coding sequence fused at the end of TM7 to the desired C-terminus sequence was synthesized by a DNA synthesis service provider (BioCat GmbH, Germany) and inserted into pcDNA3.1(+) (Invitrogen, MA, USA) downstream of the CMV promoter sequence (SEQ ID NO: 82) using BamHI and Notl restriction sites. All the synthetic OR nucleotide sequences described below in Examples 1-15 further contained at their N-terminus a nucleotide sequence encoding a signal peptide (mmLucy-FLAG-rho, SeQ ID NOs: 80, 81) and at the C-terminus the bgh terminator sequence (SEQ ID NO: 83). All the OR expression plasmids also contain a Kozak sequence (GCCACC) between the BamHI restriction site and the start codon of the signal peptide. These plasmids thus contain a constitutively expressed OR gene.

[3] = target: T2, OR10H5 (Homo sapiens, UniProt Q8NGA6); assay: as above; assay type: cell-based
T2 construct: expressed in transfected cells; host or cells: HEK293T cells stably expressing human RTP1S (V227I) and RTP2 (L220R)
Excerpt: as §1
T2 sequence (Q8NGA6 with tags, fused parts or gaps): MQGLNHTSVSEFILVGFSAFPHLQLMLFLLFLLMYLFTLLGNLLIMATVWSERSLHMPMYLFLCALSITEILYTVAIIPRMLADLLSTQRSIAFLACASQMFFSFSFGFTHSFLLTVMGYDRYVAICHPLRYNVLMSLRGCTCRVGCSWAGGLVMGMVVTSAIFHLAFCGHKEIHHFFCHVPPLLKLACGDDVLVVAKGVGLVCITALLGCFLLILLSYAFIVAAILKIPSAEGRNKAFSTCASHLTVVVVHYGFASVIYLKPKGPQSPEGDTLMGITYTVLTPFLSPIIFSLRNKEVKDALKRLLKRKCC

[4] = target: T3, OR10H5 (Homo sapiens, UniProt Q8NGA6); assay: as above; assay type: cell-based; details: wild-type
T3 construct: expressed in transfected cells; host or cells: HEK293T cells stably expressing human RTP1S (V227I) and RTP2 (L220R)
Excerpt: as §1
T3 sequence (Q8NGA6 whole entry): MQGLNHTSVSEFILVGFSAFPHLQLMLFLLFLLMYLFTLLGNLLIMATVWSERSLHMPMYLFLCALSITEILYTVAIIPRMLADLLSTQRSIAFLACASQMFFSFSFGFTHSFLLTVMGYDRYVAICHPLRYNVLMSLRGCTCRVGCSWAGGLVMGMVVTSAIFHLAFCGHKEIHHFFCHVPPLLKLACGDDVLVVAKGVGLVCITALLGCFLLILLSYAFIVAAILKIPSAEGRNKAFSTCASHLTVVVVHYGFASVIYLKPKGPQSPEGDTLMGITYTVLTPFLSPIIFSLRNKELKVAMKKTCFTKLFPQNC

[5] = target: T4, OR5A2 (Homo sapiens, UniProt Q8NGI9); assay: as above; assay type: cell-based
T4 construct: expressed in transfected cells; host or cells: HEK293T cells with stably integrated human RTP1S (V227I) and RTP2 (L220R)
T4 sequence (Q8NGI9 1-324): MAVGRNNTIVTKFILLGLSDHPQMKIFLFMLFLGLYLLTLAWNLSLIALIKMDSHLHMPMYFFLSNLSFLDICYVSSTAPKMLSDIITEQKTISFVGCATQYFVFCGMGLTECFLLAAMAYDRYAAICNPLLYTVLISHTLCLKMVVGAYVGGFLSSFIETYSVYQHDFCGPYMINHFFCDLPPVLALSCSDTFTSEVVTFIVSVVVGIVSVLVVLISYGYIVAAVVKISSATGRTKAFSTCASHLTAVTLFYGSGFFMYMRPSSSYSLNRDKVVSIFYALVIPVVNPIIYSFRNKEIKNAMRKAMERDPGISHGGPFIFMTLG
Excerpt: as §1

[6] = test system: OR5A2; assay: as above; assay type: cell-based, human
Excerpt: as §1

[7] = target: T5, OR5A2 (Homo sapiens, UniProt Q8NGI9); assay: as above; assay type: cell-based; remark: listed apart in the source
T5 construct: expressed in transfected cells; host or cells: HEK293T cells with stably integrated human RTP1S (V227I) and RTP2 (L220R)
T5 sequence (Q8NGI9 with tags, fused parts or gaps): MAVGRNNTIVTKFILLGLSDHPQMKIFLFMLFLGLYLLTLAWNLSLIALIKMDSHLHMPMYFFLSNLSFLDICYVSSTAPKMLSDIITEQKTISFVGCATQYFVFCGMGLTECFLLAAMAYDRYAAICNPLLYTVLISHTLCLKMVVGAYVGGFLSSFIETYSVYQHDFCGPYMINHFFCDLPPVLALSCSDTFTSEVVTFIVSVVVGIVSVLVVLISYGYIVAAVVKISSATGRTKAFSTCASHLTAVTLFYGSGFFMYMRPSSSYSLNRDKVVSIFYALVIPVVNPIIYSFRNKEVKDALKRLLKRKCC
Excerpt: as §1

[8] = target: T6, OR5AN1 (Homo sapiens, UniProt Q8NGI8); assay: Chimeric OR5AN1 with C-terminal sequence of OR1N2 (luciferase); assay type: cell-based
T6 construct: expressed in transfected cells; host or cells: HEK293T stably expressing human RTP1S(V227I) and RTP2(L220R)
T6 sequence (Q8NGI8 with tags, fused parts or gaps limits assumed): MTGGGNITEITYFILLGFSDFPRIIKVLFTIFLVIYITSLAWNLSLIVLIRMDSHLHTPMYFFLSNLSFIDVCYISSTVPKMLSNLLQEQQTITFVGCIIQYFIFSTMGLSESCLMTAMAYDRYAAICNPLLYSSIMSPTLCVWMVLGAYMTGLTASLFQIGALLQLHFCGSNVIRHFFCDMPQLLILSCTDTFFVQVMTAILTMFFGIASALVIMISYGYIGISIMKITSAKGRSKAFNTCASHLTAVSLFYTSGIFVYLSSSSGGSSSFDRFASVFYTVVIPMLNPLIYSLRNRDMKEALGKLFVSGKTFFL
Excerpt: Similarly, the C-terminal sequence of OR5AN1 was replaced with the C-terminal sequence of the ambrettolide receptor OR1 N2.

[9] = target: T7, OR5A1 (Homo sapiens, UniProt Q8NGJ0, I300V); assay: Luciferase dose-response, wild-type vs changed C-terminus (SEQ ID NO: 86); assay type: cell-based
T7 construct: expressed in transfected cells; host or cells: HEK293T cells stably expressing human RTP1S (V227I) and RTP2 (L220R)
T7 sequence (Q8NGJ0 with tags, fused parts or gaps I300V): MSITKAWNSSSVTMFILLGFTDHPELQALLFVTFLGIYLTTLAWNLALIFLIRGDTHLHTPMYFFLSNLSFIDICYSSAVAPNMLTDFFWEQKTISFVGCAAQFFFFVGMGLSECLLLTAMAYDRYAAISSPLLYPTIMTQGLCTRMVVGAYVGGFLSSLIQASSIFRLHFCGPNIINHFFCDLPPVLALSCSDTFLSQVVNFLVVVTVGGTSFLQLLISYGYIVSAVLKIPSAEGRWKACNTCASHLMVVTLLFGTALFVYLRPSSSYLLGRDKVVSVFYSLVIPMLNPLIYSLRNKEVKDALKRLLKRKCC

[10] = test system: OR5A1; assay: as above; assay type: cell-based, human
[11] = target: T8, OR5A1 (Homo sapiens, UniProt Q8NGJ0); assay: as above; assay type: cell-based
T8 construct: expressed in transfected cells; host or cells: HEK293T cells stably expressing human RTP1S (V227I) and RTP2 (L220R)

[12] = target: T9, OR14J1 (Homo sapiens, UniProt Q9UGF5); assay: Activation of modified OR14J1 (SEQ ID NO: 221), library hit and dose-response; assay type: cell-based; details: SEQ ID 221
T9 construct: expressed in transfected cells; host or cells: HEK293T stably expressing human RTP1S(V227I) and RTP2(L220R) (general method)
T9 sequence (Q9UGF5 with tags, fused parts or gaps): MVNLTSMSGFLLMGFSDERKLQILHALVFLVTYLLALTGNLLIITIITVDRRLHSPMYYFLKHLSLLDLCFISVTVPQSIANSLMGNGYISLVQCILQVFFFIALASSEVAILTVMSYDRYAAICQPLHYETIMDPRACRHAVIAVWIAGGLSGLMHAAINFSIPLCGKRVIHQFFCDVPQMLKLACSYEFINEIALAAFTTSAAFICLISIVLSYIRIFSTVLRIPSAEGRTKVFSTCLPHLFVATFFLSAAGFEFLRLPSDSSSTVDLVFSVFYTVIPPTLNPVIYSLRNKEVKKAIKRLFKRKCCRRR
Experimental: Parallel transfection experiments were conducted with all these plasmids (n = 408) and cells expressing the different OR were stimulated with one given ligand at a time, tested at the maximal, clearly non-cytotoxic concentration. In total 26 different ligands were tested on the full library of class II receptors.
Table 16. Ligands tested on the full library of OR and cognate receptors identified for these ligands

[13] = target: T10, OR52E8 (Homo sapiens, UniProt Q6IFG1); assay: cell-based; assay type: cell-based; details: read-out: Potency EC50
T10 construct: expressed in transfected cells; host or cells: HEK293T stably expressing human RTP1S(V227I) and RTP2(L220R)
Excerpt: as §1

[14] = test system: OR52E8; assay: cell-based; assay type: cell-based, human
Excerpt: as §1

[15] = target: T11, OR8K3 (Homo sapiens, UniProt Q8NH51); assay: cell-based; assay type: cell-based
T11 construct: expressed in transfected cells; host or cells: HEK293T cells stably expressing human RTP1S (V227I) and RTP2 (L220R)
T11 sequence (Q8NH51 1-312): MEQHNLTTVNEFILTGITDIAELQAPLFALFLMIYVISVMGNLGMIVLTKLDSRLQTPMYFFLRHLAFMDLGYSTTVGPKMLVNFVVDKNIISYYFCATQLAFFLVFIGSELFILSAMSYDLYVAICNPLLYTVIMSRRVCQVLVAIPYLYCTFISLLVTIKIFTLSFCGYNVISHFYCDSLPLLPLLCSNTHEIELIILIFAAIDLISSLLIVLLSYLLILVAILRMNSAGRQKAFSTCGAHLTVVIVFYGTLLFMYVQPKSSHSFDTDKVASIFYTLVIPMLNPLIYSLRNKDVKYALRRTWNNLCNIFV
Excerpt: as §1
(§2) Thus, using the improved sensitivity of the assay provided by the modified variant, activation of OR8K3 by a broader set of mint-smelling molecules can be detected.
(§3) Knowing the importance of the C-terminal sequence for proper expression as observed in the previous examples, an obvious way to improve expression might be just to provide a hybrid receptor whereby the C-terminal domain in a non-functional or poorly functional receptor is replaced by the C-terminal domain of a functional receptor. […] Thus the C-terminal sequence of OR8K3 was replaced with the C-terminal sequence of the ambrettolide-receptor OR1N2 or the musk receptor OR5AN1. […] Thus the improvement achieved with the modified C-terminal sequences of this disclosure cannot be achieved by simply generating chimeric receptors combining a functional C-terminal domain of a functional receptor with a poorly expressed receptor.

[16] = target: T12, OR8K3 (Homo sapiens, UniProt Q8NH51, D295E/Y298D); assay: cell-based; assay type: cell-based
T12 construct: expressed in transfected cells; host or cells: HEK293T cells stably expressing human RTP1S (V227I) and RTP2 (L220R)
T12 sequence (Q8NH51 with tags, fused parts or gaps D295E/Y298D): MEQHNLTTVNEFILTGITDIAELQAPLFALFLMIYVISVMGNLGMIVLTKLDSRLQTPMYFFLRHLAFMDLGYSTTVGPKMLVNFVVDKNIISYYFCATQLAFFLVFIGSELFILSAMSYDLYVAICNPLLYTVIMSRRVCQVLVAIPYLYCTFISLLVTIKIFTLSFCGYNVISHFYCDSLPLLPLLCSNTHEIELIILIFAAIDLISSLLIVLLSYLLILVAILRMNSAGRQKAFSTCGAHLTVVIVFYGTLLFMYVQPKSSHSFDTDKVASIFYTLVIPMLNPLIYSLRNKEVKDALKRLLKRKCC
Excerpt: as §1, §2, §3

[17] = test system: OR8K3; assay: cell-based; assay type: cell-based, human
Excerpt: as §1, §2, §3

[18] = changed C-term SEQ ID NO: 86, read-out: Potency EC50

C/C(=C\CC[C@@H](C)CCO)CCC=O [(R,E)-10-hydroxy-4,8-dimethyldec-4-enal]
EC20% [1]: 24.4 µM

Cc1ccc2c(c1)OCC(=O)CO2 [Calone]
Comments on efficacy [2]: 3-fold lower maximal induction for wild-type | Fold-improvement threshold [2]: 2.5 | Fold-improvement potency ([2]; higher EC50 due to much higher efficacy of optimized C-terminus): 0.7 * | pEC50 [3, 18]: 4.22 | Detection threshold; concentration for 2-fold induction ([3]; changed C-term. SEQ ID NO: 86): 24.3 µM | Detection threshold; concentration for 2-fold induction [4]: 60.1 µM | pEC50 ([4]; read-out: Potency EC50): 4.39

CC1COCc2cc3c(cc21)C(C)(C)C(C)C3(C)C (stereo not drawn) [Galaxolide]
pEC50 ([5]; Potency EC50, wild-type): < 4.51 | Detection threshold; concentration for 2-fold induction ([5]; wild-type): n.i. (>> 31) µM | activation of the wild-type receptor ([5]; wild-type OR5A2): No activation | Comments on efficacy [6]: No induction wild-type | Fold-improvement potency [6]: >300 | Fold-improvement threshold [6]: >20000 | concentration at which activation occurs ([7]; OR5A2 with SEQ ID NO: 86): < 0.01 µM | pEC50 ([7]; Potency EC50, changed C-term SEQ ID NO: 86): 7.00 | Detection threshold; concentration for 2-fold induction ([7]; changed C-term. SEQ ID NO: 86): 0.0016 µM

C/C(=C\CC[C@H](C)CCO)CCC=O [(S,E)-10-hydroxy-4,8-dimethyldec-4-enal]
EC20% [1]: 10.1 µM

CC(=O)c1c(C)c([N+](=O)[O-])c(C(C)(C)C)c([N+](=O)[O-])c1C [Musk ketone]
functional response [8]: not showing any functional response

CC(=O)/C=C/C1=C(C)CCCC1(C)C [Beta-ionone]
pEC50 [9]: 5.51 | Detection threshold; concentration for 2-fold induction ([9]; changed C-term. SEQ ID NO: 86): 3.2 µM | Comments on efficacy [10]: 4-fold lower maximal induction for wild-type | Fold-improvement potency [10]: 1.8 | Fold-improvement threshold [10]: 5.9 | pEC50 [11]: 5.26 | Detection threshold; concentration for 2-fold induction ([11]; wild-type): 19.1 µM

C[C@H]1CCC2(O)C(C)(C)C3CCC2(C)C1C3 (stereo partly drawn) [Patchoulol, (4S)-4,8a,9,9-tetramethyloctahydro-1,6-methanonaphthalen-1(2H)-ol]
activation of OR14J1 [12]: activate OR14J1; also recorded: strong induction

CCCC(C)(O)CC(=O)O (stereo not drawn) [3-Methyl-3-Hydroxy-Hexanoic acid]
pEC50 ([13]; changed C-term SEQ ID NO: 86): 4.16 | pEC50 ([13]; wild-type): < 3.50 | Comments on efficacy [14]: No induction wild-type | Fold-improvement potency [14]: >>5 | Fold-improvement threshold [14]: >>5

CC(C)[C@@H]1CC[C@@H](C)CC1=O [menthone]
Detection threshold; concentration for 2-fold induction [15]: > 316 µM | activation of modified receptor variant ([16]; OR8K3 with SEQ ID NO: 86): also activating the receptor, although with a lower potency

CC1CCC(C(C)C)C(O)C1 (stereo not drawn) [Menthol]
Detection threshold; concentration for 2-fold induction [15]: 160 µM | pEC50 ([15]; wild-type, read-out: Potency EC50): 3.63 | Detection threshold; concentration for 2-fold induction [16]: 11 µM | pEC50 [16, 18]: 3.94 | Comments on efficacy [17]: 3-fold lower maximal induction for wild-type | Fold-improvement potency [17]: 2 | functional response ([17]; OR8K3 with C-terminal sequence of OR1N2 or OR5AN1): did not show any functional response

CC(C)(O)[Si](C1CC1)(C1CC1)C1CC1 [2-(tricyclopropylsilyl)propan-2-ol]
activation of OR14J1 [12]: activate OR14J1

— patent EP4664463A1, “COMPUTER-IMPLEMENTED METHOD FOR OLFACTORY PROPERTY PREDICTION” (Givaudan SA, priority 2024, dated 2025)
